Data on 28 compounds can be found in patent US9212171B2, “Ethynyl compounds” (Hoffmann-La Roche Inc., priority 2011, dated 2015).

This assay deals with human mGlu5a receptor (Homo sapiens (Human), UniProt P41594). Briefly: Intracellular Ca2+ mobilization assay (mGlu5 PAM). The assay is classed as cell-based. To be noted: for EC50: HEK-293 cells stably transfected with human mGlu5a, L-glutamate added at EC20 (typically around 80 μM); for Emax: maximal response in % of the maximal stimulatory effect obtained with saturating concentrations of L-glutamate, read-out: Eff. (%). The procedure: A monoclonal HEK-293 cell line stably transfected with a cDNA encoding for the human mGlu5a receptor was generated; for the work with mGlu5 Positive Allosteric Modulators (PAMs), a cell line with low receptor expression levels and low constitutive receptor activity was selected to allow the differentiation of agonistic versus PAM activity. Cells were cultured according to standard protocols (Freshney, 2000) in Dulbecco's Modified Eagle Medium with high glucose supplemented with 1 mM glutamine, 10% (vol/vol) heat-inactivated bovine calf serum, Penicillin/Streptomycin, […] hygromycin and 15 μg/ml blasticidin (all cell culture reagents and antibiotics from Invitrogen, Basel, Switzerland).
human mGlu5a receptor, sequence (P41594 other isoform, or with tags, fused parts or gaps): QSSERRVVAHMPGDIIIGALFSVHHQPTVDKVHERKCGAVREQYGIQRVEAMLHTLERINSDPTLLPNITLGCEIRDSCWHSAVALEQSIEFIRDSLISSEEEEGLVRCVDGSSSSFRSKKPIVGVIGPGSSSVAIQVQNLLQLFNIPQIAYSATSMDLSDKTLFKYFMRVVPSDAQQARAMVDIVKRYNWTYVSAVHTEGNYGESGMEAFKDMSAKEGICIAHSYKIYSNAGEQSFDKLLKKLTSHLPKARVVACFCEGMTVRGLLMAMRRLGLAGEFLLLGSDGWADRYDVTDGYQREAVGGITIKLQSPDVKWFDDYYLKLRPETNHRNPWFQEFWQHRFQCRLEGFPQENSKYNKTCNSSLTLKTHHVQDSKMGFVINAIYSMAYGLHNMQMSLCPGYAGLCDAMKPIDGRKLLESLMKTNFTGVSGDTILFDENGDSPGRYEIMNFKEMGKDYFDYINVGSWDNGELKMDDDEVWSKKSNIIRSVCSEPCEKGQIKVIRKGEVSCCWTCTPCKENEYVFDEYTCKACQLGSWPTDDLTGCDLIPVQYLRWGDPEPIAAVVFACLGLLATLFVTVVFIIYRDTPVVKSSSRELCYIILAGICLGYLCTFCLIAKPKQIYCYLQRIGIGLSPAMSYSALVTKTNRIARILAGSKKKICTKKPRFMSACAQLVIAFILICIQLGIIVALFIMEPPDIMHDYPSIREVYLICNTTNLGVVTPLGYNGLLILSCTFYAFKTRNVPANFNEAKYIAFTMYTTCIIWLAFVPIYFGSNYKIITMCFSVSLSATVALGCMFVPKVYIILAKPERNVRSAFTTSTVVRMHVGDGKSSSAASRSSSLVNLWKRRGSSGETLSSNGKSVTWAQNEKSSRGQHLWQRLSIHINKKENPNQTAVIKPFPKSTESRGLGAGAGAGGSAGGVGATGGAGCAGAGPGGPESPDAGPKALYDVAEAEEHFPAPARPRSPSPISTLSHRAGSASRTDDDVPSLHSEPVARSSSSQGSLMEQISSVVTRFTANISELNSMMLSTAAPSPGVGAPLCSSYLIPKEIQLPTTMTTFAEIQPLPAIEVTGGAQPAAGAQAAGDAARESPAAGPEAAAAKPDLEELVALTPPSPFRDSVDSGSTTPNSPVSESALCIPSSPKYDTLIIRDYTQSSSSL
About 24 hrs before an experiment, 5×10^4 cells/well were seeded in poly-D-lysine coated, black/clear-bottomed 96-well plates. The cells were loaded with 2.5 μM Fluo-4AM in loading buffer (1×HBSS, 20 mM HEPES) for 1 hr at 37° C. and washed five times with loading buffer. The cells were transferred into a Functional Drug Screening System 7000 (Hamamatsu, Paris, France), and 11 half logarithmic serial dilutions of test compound at 37° C. were added and the cells were incubated for 10-30 min. with on-line recording of fluorescence. Following this pre-incubation step, the agonist L-glutamate was added to the cells at a concentration corresponding to EC20 (typically around 80 μM) with on-line recording of fluorescence; in order to account for day-to-day variations in the responsiveness of cells, the EC20 of glutamate was determined immediately ahead of each experiment by recording of a full dose-response curve of glutamate.
Responses were measured as peak increase in fluorescence minus basal (i.e. fluorescence without addition of L-glutamate), normalized to the maximal stimulatory effect obtained with saturating concentrations of L-glutamate. Graphs were plotted with the % maximal stimulatory using XLfit, a curve fitting program that iteratively plots the data using Levenburg Marquardt algorithm. The single site competition analysis equation used was y=A+((B−A)/(1+((x/C)D))), where y is the % maximal stimulatory effect, A is the minimum y, B is the maximum y, C is the EC50, x is the log 10 of the concentration of the competing compound and D is the slope of the curve (the Hill Coefficient). From these curves the EC50 (concentration at which half maximal stimulation was achieved), the Hill coefficient as well as the maximal response in % of the maximal stimulatory effect obtained with saturating concentrations of L-glutamate were calculated.
A depression of the signal observed after addition of the EC20 concentration of L-glutamate was indicative of an inhibitory activity of the test compound.

Each structure is given as a SMILES string.

In the case of `CN1C(=O)C(c2ccc(C#Cc3ccccc3)cn2)CC1(C)C` (racemic) [Example 1, (RS)-1,5,5-Trimethyl-3-(5-(phenylethynyl)pyridin-2-yl)pyrrolidin-2-one], the EC50 – broadly, the concentration at which the effect is half-maximal – worked out at 60 nM and the Emax came out at 111%.
The like results for `CN1C(=O)C(c2ccc(C#Cc3cccnc3)cn2)CC1(C)C` (racemic) [Example 2, (RS)-1,5,5-Trimethyl-3-(5-(pyridin-3-ylethynyl)pyridin-2-yl)pyrrolidin-2-one] were, in that order, 981 nM and 107%.
The like results for `CN1C(=O)C(c2ccc(C#Cc3cccc(Cl)c3)cn2)CC1(C)C` (racemic) [Example 3, (RS)-3-(5-((3-chlorophenyl)ethynyl)pyridin-2-yl)-1,5,5-trimethylpyrrolidin-2-one] were, in that order, 38 nM and 81%.
The like results for `CN1C(=O)C(c2ccc(C#Cc3cccc(F)c3)cn2)CC1(C)C` (racemic) [Example 4, (RS)-3-(5-((3-Fluorophenyl)ethynyl)pyridin-2-yl)-1,5,5-trimethylpyrrolidin-2-one] were, in that order, 61 nM and 103%.
Regarding `CN1C(=O)C(C(=O)OCc2ccccc2)(c2ncc(C#Cc3ccccc3)cn2)CC1(C)C` (racemic) [Example 5, (RS)-Benzyl 1,5,5-trimethyl-2-oxo-3-(5-(phenylethynyl)pyrimidin-2-yl)pyrrolidine-3-carboxylate], it took 528 nM to reach a half-maximal effect (EC50) and the Emax is 48%.
For the compound `CN1C(=O)C(c2ncc(C#Cc3ccccc3)cn2)CC1(C)C` (racemic) [Example 6, (RS)-1,5,5-Trimethyl-3-(5-(phenylethynyl)pyrimidin-2-yl)pyrrolidin-2-one], the EC50 was determined as 130 nM and the Emax was found to be 90%.
With `CN1C(=O)C(c2ncc(C#Cc3cccc(F)c3)cn2)CC1(C)C` (racemic) [Example 7, (RS)-3-(5-((3-fluorophenyl)ethynyl)pyrimidin-2-yl)-1,5,5-trimethylpyrrolidin-2-one], the EC50 was 137 nM and the Emax amounted to 85%.
For `CN1C(=O)C(c2ncc(C#Cc3ccc(F)cc3)cn2)CC1(C)C` (racemic) [Example 8, (RS)-3-(5-((4-Fluorophenyl)ethynyl)pyrimidin-2-yl)-1,5,5-trimethylpyrrolidin-2-one], the midpoint of the response, the EC50, lay at 390 nM and the Emax turned out to be 105%.
The matching figures for `CN1C(=O)C(c2ccc(C#Cc3cccc(F)c3)nn2)CC1(C)C` (racemic) [Example 9, (RS)-3-(6-((3-Fluorophenyl)ethynyl)pyridazin-3-yl)-1,5,5-trimethylpyrrolidin-2-one]: 34 nM and 88%.
The like results for `CN1C(=O)C(c2ccc(C#Cc3ccccc3)nn2)CC1(C)C` (racemic) [Example 11, (RS)-1,5,5-trimethyl-3-(6-(phenylethynyl)pyridazin-3-yl)pyrrolidin-2-one] were, in that order, 58 nM and 115%.
Regarding `CN1C(=O)C(c2ccc(C#Cc3ccccc3)cn2)CCC1(C)C` (racemic) [Example 12, (RS)-1,6,6-Trimethyl-3-(5-(phenylethynyl)pyridin-2-yl)piperidin-2-one], the response was half-maximal at 113 nM (EC50) and the Emax was determined as 103%.
In the case of `CN1C(=O)C(c2ccc(C#Cc3cccc(F)c3)cn2)CCC1(C)C` (racemic) [Example 13, (RS)-3-(5-((3-Fluorophenyl)ethynyl)pyridin-2-yl)-1,6,6-trimethylpiperidin-2-one], the EC50 was 98 nM and the Emax stood at 90%.
For `CN1C(=O)C(c2ccc(C#Cc3ccc(F)cc3)cn2)CCC1(C)C` (racemic) [Example 14, (RS)-3-(5-((4-Fluorophenyl)ethynyl)pyridin-2-yl)-1,6,6-trimethylpiperidin-2-one], a half-maximal effect (EC50) was put at 212 nM and the Emax is 96%.
The matching figures for `CN1C(=O)C(c2ncc(C#Cc3ccccc3)cn2)CCC1(C)C` (racemic) [Example 15, (RS)-1,6,6-Trimethyl-3-(5-(phenylethynyl)pyrimidin-2-yl)piperidin-2-one]: 179 nM and 91%.
For `CN1C(=O)C(c2ncc(C#Cc3ccc(F)cc3)cn2)CCC1(C)C` (racemic) [Example 16, (RS)-3-(5-((4-Fluorophenyl)ethynyl)pyrimidin-2-yl)-1,6,6-trimethylpiperidin-2-one], the EC50 worked out at 573 nM and the Emax was 96%.
`CN1C(=O)C(c2ncc(C#Cc3cccc(F)c3)cn2)CCC1(C)C` (racemic) [Example 17, (RS)-3-(5-((3-fluorophenyl)ethynyl)pyrimidin-2-yl)-1,6,6-trimethylpiperidin-2-one]: the response was half-maximal at 132 nM (EC50) and the Emax turned out to be 80%.
The matching figures for `CN1C(=O)C(O)(c2ccc(C#Cc3ccccc3)cn2)CC1(C)C` (racemic) [Example 18, (RS)-3-Hydroxy-1,5,5-trimethyl-3-(5-(phenylethynyl)pyridin-2-yl)pyrrolidin-2-one]: 414 nM and 126%.
Consider `COC1(c2ccc(C#Cc3ccccc3)cn2)CC(C)(C)N(C)C1=O` (racemic) [Example 19, (RS)-3-Methoxy-1,5,5-trimethyl-3-(5-(phenylethynyl)pyridin-2-yl)pyrrolidin-2-one], for which the EC50 came to 96 nM and the Emax came to 108%.
Take `CN1C(=O)C(C)(c2ccc(C#Cc3ccccc3)cn2)CC1(C)C` (racemic) [Example 20, (RS)-1,3,5,5-Tetramethyl-3-(5-(phenylethynyl)pyridin-2-yl)pyrrolidin-2-one]: the concentration for a half-maximal effect (EC50) was found to be 90 nM and the Emax is 109%.
On to `CN1C(=O)C(c2ncc(C#Cc3cccc(F)c3)cc2F)CC1(C)C` (racemic) [Example 21, (RS)-3-(3-fluoro-5-((3-fluorophenyl)ethynyl)pyridin-2-yl)-1,5,5-trimethylpyrrolidin-2-one], for which the midpoint of the response, the EC50, lay at 188 nM and the Emax is 91%.
The like results for `CN1CCCCC(c2ccc(C#Cc3ccccc3)cn2)C1=O` (racemic) [Example 22, (RS)-1-Methyl-3-(5-phenylethynyl-pyridin-2-yl)-azepan-2-one] were, in that order, 59 nM and 59%.
Consider `CN1CCCCC(c2ccc(C#Cc3ccc(F)cc3)cn2)C1=O` (racemic) [Example 23, (RS)-3-[5-(4-Fluoro-phenylethynyl)-pyridin-2-yl]-1-methyl-azepan-2-one], for which the response was half-maximal at 90 nM (EC50) and the Emax was found to be 61%.
With `CN1CCCCC(c2ccc(C#Cc3cccc(F)c3)cn2)C1=O` (racemic) [Example 24, (RS)-3-[5-(3-Fluoro-phenylethynyl)-pyridin-2-yl]-1-methyl-azepan-2-one], the concentration giving a half-maximal response (EC50) is 39 nM and the Emax stood at 69%.
As to `CN1C(=O)[C@@H](c2ccc(C#Cc3ccccc3)cn2)[C@@H]2CCC[C@@H]21` (racemic) [Example 27, (3RS,3aSR,6aSR)-1-Methyl-3-(5-phenylethynyl-pyridin-2-yl)-hexahydro-cyclopenta[b]pyrrol-2-one], the EC50 stood at 47 nM and the Emax is 53%.
The like results for `CN1C(=O)[C@@H](c2ccc(C#Cc3ccc(F)cc3)cn2)[C@@H]2CCC[C@@H]21` (racemic) [Example 29, (3RS,3aSR,6aSR)-3-[5-(4-Fluoro-phenylethynyl)-pyridin-2-yl]-1-methyl-hexahydro-cyclopenta[b]pyrrol-2-one] were, in that order, 78 nM and 53%.
For the compound `CN1C(=O)[C@@H](c2ccc(C#Cc3cccc(F)c3)cn2)[C@@H]2CCC[C@@H]21` (racemic) [Example 30, (3RS,3aSR,6aSR)-3-[5-(3-Fluoro-phenylethynyl)-pyridin-2-yl]-1-methyl-hexahydro-cyclopenta[b]pyrrol-2-one], the concentration giving a half-maximal response (EC50) is 33 nM and the Emax was 57%.
For `CN1C(=O)[C@@H](c2ncc(C#Cc3ccccc3)cn2)[C@@H]2CCC[C@@H]21` (racemic) [Example 33, (3RS,3aSR,6aSR)-1-Methyl-3-(5-phenylethynyl-pyrimidin-2-yl)-hexahydro-cyclopenta[b]pyrrol-2-one], the EC50 was 52 nM and the Emax stood at 52%.
The matching figures for `CN1C(=O)[C@@H](c2ccc(C#Cc3ccccc3)cn2)[C@@H]2CCCC[C@@H]21` (racemic) [Example 34, (3RS,6SR,7SR)-1-Methyl-3-(5-phenylethynyl-pyridin-2-yl)-octahydro-indol-2-one]: 185 nM and 82%.
